Assay results taken from ChEMBL document CHEMBL4373746, “Structural attributes influencing unbound tissue distribution” (Eur J Med Chem, 2020).

How the values were obtained:
[1] = Unbound tissue partition coefficient, ratio of drug level in skeletal muscle to plasma in Wistar Han rat at 1 to 2 mg/kg, iv infused for 10 to 20 hrs by LC-MS/MS analysis; details: skeletal muscle/plasma
[2] = Drug concentration in total liver in Wistar Han rat at 1 to 2 mg/kg, iv infused for 10 to 20 hrs by LC-MS/MS analysis; details: in vivo
[3] = Unbound tissue partition coefficient, ratio of drug level in brain to plasma in Wistar Han rat at 1 to 2 mg/kg, iv infused for 10 to 20 hrs by LC-MS/MS analysis; details: brain/plasma
[4] = Drug concentration in total white adipose tissue in Wistar Han rat at 1 to 2 mg/kg, iv infused for 10 to 20 hrs by LC-MS/MS analysis; details: in vivo
[5] = Drug concentration in total heart in Wistar Han rat at 1 to 2 mg/kg, iv infused for 10 to 20 hrs by LC-MS/MS analysis; details: in vivo
[6] = Unbound tissue partition coefficient, ratio of drug level in heart to plasma in Wistar Han rat at 1 to 2 mg/kg, iv infused for 10 to 20 hrs by LC-MS/MS analysis; details: heart/plasma
[7] = Drug concentration in total brain in Wistar Han rat at 1 to 2 mg/kg, iv infused for 10 to 20 hrs by LC-MS/MS analysis; details: in vivo
[8] = Unbound tissue partition coefficient, ratio of drug level in liver to plasma in Wistar Han rat at 1 to 2 mg/kg, iv infused for 10 to 20 hrs by LC-MS/MS analysis; details: liver/plasma
[9] = Total plasma concentration in Wistar Han rat at 1 to 2 mg/kg, iv infused for 10 to 20 hrs by LC-MS/MS analysis; details: in vivo
[10] = Unbound tissue partition coefficient, ratio of drug level in adipose to plasma in Wistar Han rat at 1 to 2 mg/kg, iv infused for 10 to 20 hrs by LC-MS/MS analysis; details: adipose/plasma
[11] = Drug concentration in total skeletal muscle in Wistar Han rat at 1 to 2 mg/kg, iv infused for 10 to 20 hrs by LC-MS/MS analysis; details: in vivo
[12] = Fraction unbound in Wistar Han rat liver at 2 uM incubated for 6 hrs by equilibrium dialysis method
[13] = Fraction unbound in Wistar Han rat plasma at 2 uM incubated for 6 hrs by equilibrium dialysis method
[14] = Fraction unbound in Wistar Han rat heart at 2 uM incubated for 6 hrs by equilibrium dialysis method
[15] = Apparent permeability of the compound across dog RRCK cells by MDCK-LE assay
[16] = Fraction unbound in Wistar Han rat white adipose tissue at 2 uM incubated for 6 hrs by equilibrium dialysis method
[17] = Fraction unbound in Wistar Han rat brain at 2 uM incubated for 6 hrs by equilibrium dialysis method
[18] = Fraction unbound in Wistar Han rat skeletal muscle at 2 uM incubated for 6 hrs by equilibrium dialysis method

SMILES	Kp uu [1]	Ct [2]	Kp uu [3]	Ct [4]	Ct [5]	Kp uu [6]	Ct [7]	Kp uu [8]	Cp [9]	Kp uu [10]	Ct [11]	fraction unbound at 6 h, 2 µM [12]	fraction unbound at 6 h, 2 µM [13]	fraction unbound at 6 h, 2 µM [14]	Papp [15]	fraction unbound at 6 h, 2 µM [16]	fraction unbound at 6 h, 2 µM [17]	fraction unbound at 6 h, 2 µM [18]
O=C(O)C(=O)Nc1ccc(NC(=O)[C@H](CC2CCCC2)n2cnc(C(F)(F)F)c2)nc1	0.02	300 ng/mL	0.0018	0.77 ng/mL	20 ng/mL	0.75	0.38 ng/mL	7.2	110 ng/mL	0.024	0.9 ng/mL	–	–	–	–	–	–	–
O=C(NC1CCCC1)C1CCN(c2nc3cc(Cl)ccc3o2)CC1	0.61	210 ng/mL	0.64	330 ng/mL	150 ng/mL	2.2	88 ng/mL	4.3	310 ng/mL	3.9	59 ng/mL	0.0414	0.00646	0.0292	35 ×10⁻⁶ cm/s	0.0248	0.0144	0.02
Cc1nc([C@@H]2CCOC2)c2c(N3CCc4c(c(C5CC5)nn4C)C3)ncnn12	1.5	380 ng/mL	0.46	270 ng/mL	110 ng/mL	1.7	52 ng/mL	6.2	66 ng/mL	2.3	75 ng/mL	0.195	0.178	0.171	30 ×10⁻⁶ cm/s	0.101	0.103	0.23
C[C@H]1COCCN1c1nc(-c2cnc(N)nc2)c2c(n1)N([C@@]1(C)CCN(C(=O)C(C)(C)N)C1)CC2	3.5	46 ng/mL	0.065	45 ng/mL	400 ng/mL	18	2 ng/mL	3.6	4.5 ng/mL	6.9	38 ng/mL	0.146	0.438	0.0824	5.1 ×10⁻⁶ cm/s	0.281	0.0654	0.16
COc1cc2c(OC[C@H]3NC(=O)[C@@H]4C[C@]34C)nccc2cc1C(N)=O	0.8	1000 ng/mL	0.032	16 ng/mL	100 ng/mL	1.2	3.7 ng/mL	11	110 ng/mL	0.38	67 ng/mL	0.368	0.298	0.399	19 ×10⁻⁶ cm/s	0.803	0.294	0.403
CC(C)n1ncc2c1C(=O)CC1(CCN(C(=O)c3ccc4[nH]nc(C(N)=O)c4c3)CC1)C2	0.76	500 ng/mL	0.0018	17 ng/mL	62 ng/mL	1.1	0.38 ng/mL	7.9	65 ng/mL	0.98	30 ng/mL	0.108	0.119	0.121	3.6 ×10⁻⁶ cm/s	0.398	0.0763	0.172
O=c1[nH]c(=S)n(CCO)c2cc[nH]c12	0.41	70 ng/mL	0.048	0.86 ng/mL	45 ng/mL	1.1	3.7 ng/mL	1.9	32 ng/mL	0.027	38 ng/mL	0.696	0.817	0.667	1.7 ×10⁻⁶ cm/s	1	0.347	0.276
CC(=O)N1CCN(c2ccc(OCC3COC(Cn4ccnc4)(c4ccc(Cl)cc4Cl)O3)cc2)CC1 (stereo not drawn) [KETOCONAZOLE]	–	–	–	–	–	–	–	–	–	–	–	–	–	–	4.2 ×10⁻⁶ cm/s	–	–	–

Continued, values first:

Kp uu [1]	Ct [2]	Kp uu [3]	Ct [4]	Ct [5]	Kp uu [6]	Ct [7]	Kp uu [8]	Cp [9]	Kp uu [10]	Ct [11]	fraction unbound at 6 h, 2 µM [12]	fraction unbound at 6 h, 2 µM [13]	fraction unbound at 6 h, 2 µM [14]	Papp [15]	fraction unbound at 6 h, 2 µM [16]	fraction unbound at 6 h, 2 µM [17]	fraction unbound at 6 h, 2 µM [18]	SMILES
0.54	1.4 ng/mL	0.0018	11 ng/mL	54 ng/mL	0.9	0.38 ng/mL	0.033	36 ng/mL	2.4	18 ng/mL	0.00176	0.00155	0.000968	3.8 ×10⁻⁶ cm/s	0.0123	0.00141	0.00165	Nc1noc2ccc(-c3cc(Cl)ccc3Oc3cc(F)c(S(=O)(=O)Nc4cscn4)cc3F)cc12
0.45	520 ng/mL	0.12	13 ng/mL	130 ng/mL	1.4	22 ng/mL	3.9	93 ng/mL	0.86	29 ng/mL	0.00676	0.00965	0.00954	38 ×10⁻⁶ cm/s	0.0597	0.00498	0.0139	Cc1c(C(=O)O)cnn1-c1nc(-c2cccc(C(F)(F)F)c2)cs1
1	520 ng/mL	0.24	73 ng/mL	220 ng/mL	2.8	40 ng/mL	4.7	150 ng/mL	1.6	100 ng/mL	0.0561	0.044	0.0693	26 ×10⁻⁶ cm/s	0.137	0.0366	0.0634	CC1(OC(=O)N2CCC(n3ncc(COc4ccc(C(N)=O)cc4F)c3C#N)CC2)CC1
0.87	540 ng/mL	0.0018	6 ng/mL	100 ng/mL	0.8	0.38 ng/mL	4.4	76 ng/mL	0.21	69 ng/mL	0.0393	0.0645	0.0378	14 ×10⁻⁶ cm/s	0.179	0.0216	0.0611	Cn1cnc(-c2ccc(O[C@H]3CCN(C(=O)Cc4ccc(OC(F)(F)F)cc4)C[C@@H]3F)c(C(N)=O)c2)c1
0.72	1.4 ng/mL	0.074	14 ng/mL	103 ng/mL	1.8	4.4 ng/mL	0.033	450 ng/mL	1.6	24 ng/mL	0.0598	0.00426	0.0329	35 ×10⁻⁶ cm/s	0.229	0.0319	0.0581	CC(=O)NS(=O)(=O)c1ccc(Oc2ccc(F)c(Cl)c2)c(C(F)(F)F)c1
0.21	4200 ng/mL	0.0037	5.7 ng/mL	44 ng/mL	0.77	0.42 ng/mL	49	83 ng/mL	0.1	21 ng/mL	0.205	0.214	0.311	1.4 ×10⁻⁶ cm/s	0.309	0.183	0.174	CN(C)C(=O)c1cc(CC(=O)O)ccc1NC(=O)c1ccccc1-c1ccc(C(F)(F)F)cc1
